Source: patent publication US9522123B2, “Use of one or a combination of phyto-cannabinoids in the treatment of epilepsy” (GW Pharma Limited, priority 2009, dated 2016)

What was measured:
[1] = system: seizures in institutionalized children; conditions: 5 institutionalized children not responding to phenobarbital and phenytoin; cited from earlier work
[2] = system: PTZ-induced seizures; experiment: PTZ (pentylenetetrazole)-induced model of generalised seizures; assay type: in vivo, rat
[3] = system: pilocarpine-induced seizures; experiment: Pilocarpine-induced model of temporal lobe seizures; assay type: in vivo, rat; conditions: pilocarpine 380 mg/kg
Protocol: (§1) Pure THCV was injected intra-peritoneally (IP) in the standard vehicle (1:1:18 ethanol:Cremophor:0.9% w/v NaCl) at doses of 0.025, 0.25 and 2.5 mg/kg alongside animals that received vehicle alone at a matched volume (n≧14 for each group). 15 minutes later methylscopolamine (1 mg/kg; to reduce peripheral muscarinic effects of pilocarpine) was administered followed, 45 minutes later by pilocarpine (380 mg/kg, IP) administration.
as §1, with “CBD” for “THCV”, “1, 10” for “0.025, 0.25”, “100” for “2.5”

[4] = system: penicillin-induced seizures; experiment: Penicillin-induced model of partial seizures; assay type: in vivo, rat; conditions: for development of the most severe seizures (tonic-clonic seizures without postural control): 150 IU penicillin
Protocol: CBD (1, 10 and 100 mg/kg) or CBD vehicle (1:1:18 ethanol:Cremophor: 0.9% w/v NaCl) was administered i.p. to adult male Wistar rats (>250 g). One week prior to this, animals had been surgically implanted with a cannula into the right lateral ventricle under anaesthesia. One hour after CBD administration, 150 IU penicillin was infused into the right lateral ventricle in 1.5 μl saline solution over one minute and seizure behaviour video recorded for two hours.
Following detailed examination of animal responses to penicillin alone (using data obtained from vehicle control groups, a finalised seizure scoring scale for penicillin-induced partial seizures has been derived. The following scoring system which was derived from several existing and published scoring systems for this model, will therefore be used for analysis of drug effects upon such seizures.

SMILES: CCCCCc1cc(O)c2c(c1)OC(C)(C)[C@@H]1CCC(C)=C[C@@H]21 [THC, tetrahydrocanibinol]
- seizure outcome [1]: One became entirely free of seizures, one became almost completely free of seizures, and the other three did no worse than before

SMILES: C=C(C)[C@@H]1CCC(C)=C[C@H]1c1c(O)cc(CCCCC)cc1O [CBD, cannabidiol]
- animals that died (mortality) ([2]; 100 mg/kg CBD IP, 60 minutes before 80 mg/kg PTZ, p<0.001 vs vehicle): 6.7%
- percentage mortality vs control ([3]; 10 mg/kg CBD): significant increase
- percentage duration of time spent in a tonic-clonic state compared to the total duration of the seizure period ([3]; CBD 1 mg/kg and 100 mg/kg): significantly reduced
- percentage of animals exhibiting tonic-clonic seizures ([3]; CBD 1 mg/kg and 100 mg/kg): significantly reduced
- mean frequency of all other seizure scores ([3]; CBD 1, 10, 100 mg/kg vs control): no significant differences
- mean tonic-clonic frequency ([3]; CBD all doses tested (1, 10, 100 mg/kg)): significant reduction
- percentage of animals manifesting with bilateral forelimb clonus with rearing and falling ([3]; CBD doses >1 mg/kg): significantly reduces
- percentage of animals showing unilateral forelimb clonus ([3]; CBD doses >1 mg/kg): significant decreases
- latency to the onset of seizure ([3]; pure CBD 1, 10, 100 mg/kg IP): No significant effect
- mean maximum severity of seizure ([3]; pure CBD 1, 10, 100 mg/kg): no effect
- percentage of animals exhibiting bilateral forelimb clonus ([3]; pure CBD 1, 10, 100 mg/kg): no significant differences
- frequency with which animals experienced the most severe seizures ([4]; 10 mg/kg CBD vs vehicle, p=0.071): near-significant effect
- development of the most severe seizures (tonic-clonic seizures without postural control) ([4]; 100 mg/kg CBD i.p., p=0.001): completely prevented development
- frequency with which animals experienced the most severe seizures ([4]; 100 mg/kg CBD vs vehicle, p=0.006): significant decrease
- median severity of penicillin-induced seizures ([4]; 100 mg/kg CBD vs vehicle, p=0.012): significantly reduced
- mortality compared to vehicle ([4]; 100 mg/kg CBD, p=0.057): near-significant effect
- development of the most severe seizures (tonic-clonic seizures without postural control) ([4]; 1 and 10 mg/kg CBD i.p., p=0.076 for both): Near-significant decreases
- proportion of animals that remained seizure-free ([4]; all doses of CBD (1, 10 and 100 mg/kg), p<0.001): significantly increased

SMILES: CCCc1cc(O)c2c(c1)OC(C)(C)[C@@H]1CCC(C)=C[C@@H]21 [THCV, tetrahydrocannabivarin]
- latency to first manifestation of seizure-like behaviour ([2]; pure THCV 0.025, 0.25, 2.5 mg/kg vs vehicle, 80 mg/kg PTZ): increased latency
- latency to score of [5] ([2]; pure THCV all doses, 80 mg/kg PTZ, p=0.013 at highest dose): increased latencies, reaching a significant level at the highest dose of THCV
- latency to score of [3] ([2]; pure THCV all doses, 80 mg/kg PTZ, p=0.017 at highest dose): increased latencies, reaching a significant level at the highest dose of THCV
- delay of seizure onset (latency to first seizure sign) ([2]; pure THCV highest dose 2.5 mg/kg, 80 mg/kg PTZ, p=0.02): delay of onset was significant
- duration of PTZ-induced seizures in animals that survived ([2]; pure THCV medium dose 0.25 mg/kg vs vehicle, 80 mg/kg PTZ, p=0.03): significantly shorter
- percentage of animals showing bilateral forelimb clonus with rearing and falling ([3]; 0.25 mg/kg THCV): significant increase
- percentage of animals showing bilateral forelimb clonus with rearing and falling ([3]; THCV doses other than 0.25 mg/kg (0.025, 2.5 mg/kg)): this effect was not seen at any other dose
- latency to the onset of seizure ([3]; pure THCV 0.025, 0.25, 2.5 mg/kg IP): No significant effect
- mean maximum severity of seizure ([3]; pure THCV 0.025, 0.25, 2.5 mg/kg): no effect
- percentage mortality vs control ([3]; pure THCV any dose): No significant change
- percentage of animals showing bilateral forelimb clonus ([3]; pure THCV any dose): no significant changes
- percentage of animals showing tonic-clonic seizures ([3]; pure THCV any dose): no significant changes
- percentage of animals showing unilateral forelimb clonus ([3]; pure THCV any dose): no significant changes
